Laboratory results reported in ChEMBL document CHEMBL1201862, “PubChem BioAssay data set” (2004).
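Where inhibition never reached the appropriate level, the endpoint shown equals the highest concentration tested. Otherwise, values were interpolated linearly from a five-concentration, 48-hour dose response in 96-well plates. Abbreviation: GI50, concentration required for 50% inhibition of growth.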 The source made the active and inactive calls. No stated cut-off is given here; in the data, active = GI50 up to about 1.1 µM and inactive = higher.

Key:
Assay in all cases: inhibition of tumour cell growth, NCI panel, 48 h
A498 = system: A498
A549 = system: A549
HCC 2998 = system: HCC 2998
HCT-15 = system: HCT-15
HOP-62 = system: HOP-62
HOP-92 = system: HOP-92
IGROV-1 = system: IGROV-1
Malme-3M = system: Malme-3M
NCI-H460 = system: NCI-H460
OVCAR-4 = system: OVCAR-4
RPMI-8226 = system: RPMI-8226
SF-268 = system: SF-268
SK-MEL-28 = system: SK-MEL-28
SK-MEL-5 = system: SK-MEL-5
TK-10 = system: TK-10
UACC-257 = system: UACC-257
SK-OV-3 = system: SK-OV-3

SMILES	GI50 (A498)	GI50 (A549)	GI50 (HCC 2998)	GI50 (HCT-15) [µM]	GI50 (HOP-62)	GI50 (HOP-92)	GI50 (IGROV-1)	GI50 (Malme-3M)	GI50 (NCI-H460)	GI50 (OVCAR-4)	GI50 (RPMI-8226)	GI50 (SF-268)	GI50 (SK-MEL-28)	GI50 (SK-MEL-5)	GI50 (TK-10)	GI50 (UACC-257)	GI50 (SK-OV-3)
CC1=C(Cl)C=CP(=O)(OC(C)C)C1 (configuration not stated)	> 100 µM (inactive)	> 100 µM (inactive)	> 100 µM (inactive)	> 100	> 100 µM (inactive)	> 100 µM (inactive)	> 100 µM (inactive)	> 100 µM (inactive)	> 100 µM (inactive)	> 100 µM (inactive)	50.2 µM (inactive)	> 100 µM (inactive)	> 100 µM (inactive)	> 100 µM (inactive)	> 100 µM (inactive)	> 100 µM (inactive)	
CC(=O)N(CCN)CCN	> 10 µM (inactive)	> 10 µM (inactive)	> 10 µM (inactive)	> 100	> 10 µM (inactive)	> 10 µM (inactive)			> 10 µM (inactive)	> 10 µM (inactive)	> 10 µM (inactive)	> 100 µM (inactive)	> 10 µM (inactive)	> 100 µM (inactive)	> 10 µM (inactive)	> 10 µM (inactive)	> 100 µM (inactive)
O=c1c2cccnc2ncn1CCCN1CCCCC1		> 100 µM (inactive)			> 100 µM (inactive)	> 100 µM (inactive)	> 100 µM (inactive)	> 100 µM (inactive)	> 100 µM (inactive)	> 100 µM (inactive)		> 100 µM (inactive)	> 100 µM (inactive)	> 100 µM (inactive)	> 100 µM (inactive)		> 100 µM (inactive)
CNS(=O)(=O)NN(C)S(=O)(=O)c1ccc(C)cc1	> 100 µM (inactive)	> 100 µM (inactive)	> 100 µM (inactive)		> 100 µM (inactive)	> 100 µM (inactive)	> 100 µM (inactive)	> 100 µM (inactive)	> 100 µM (inactive)	> 100 µM (inactive)	> 100 µM (inactive)	> 100 µM (inactive)	> 100 µM (inactive)	> 100 µM (inactive)	> 100 µM (inactive)	> 100 µM (inactive)	> 100 µM (inactive)
COC(OC)c1cc2c(cc1C=O)OCO2		> 100 µM (inactive)	> 100 µM (inactive)		> 100 µM (inactive)	80.7 µM (inactive)	> 100 µM (inactive)	0.276 µM (active)	> 100 µM (inactive)	> 100 µM (inactive)		> 100 µM (inactive)	> 100 µM (inactive)	30.6 µM (inactive)	> 100 µM (inactive)	> 100 µM (inactive)	43.8 µM (inactive)
CCC(C)n1c(C)nc2c1C(=O)c1ccccc1C2=O (configuration not stated)		33.9 µM (inactive)	60.8 µM (inactive)	27.2	58.2 µM (inactive)	22.1 µM (inactive)	45.1 µM (inactive)	32.2 µM (inactive)	19.3 µM (inactive)	73.1 µM (inactive)		30.8 µM (inactive)	75.7 µM (inactive)	26.9 µM (inactive)	94.6 µM (inactive)	27.9 µM (inactive)	> 100 µM (inactive)
Cc1coc2c1C(=O)C(=O)c1ccccc1-2	1.83 µM (inactive)	2.04 µM (inactive)	1.9 µM (inactive)	1.27	1.64 µM (inactive)	0.401 µM (active)	1.83 µM (inactive)	1.58 µM (inactive)	1.77 µM (inactive)	1.82 µM (inactive)			1.71 µM (inactive)	0.56 µM (active)	1.9 µM (inactive)	0.21 µM (active)	1.76 µM (inactive)
Cc1ccccc1C(=O)c1ccccc1O	> 100 µM (inactive)	> 100 µM (inactive)	> 100 µM (inactive)	> 100	> 100 µM (inactive)	> 100 µM (inactive)	> 100 µM (inactive)	> 100 µM (inactive)	> 100 µM (inactive)	> 100 µM (inactive)		> 100 µM (inactive)	> 100 µM (inactive)	> 100 µM (inactive)	> 100 µM (inactive)	> 100 µM (inactive)	> 100 µM (inactive)
COC(=O)C1=CC(=O)[C@@H]2CCCC[C@H]12		> 100 µM (inactive)	> 100 µM (inactive)	> 100	> 100 µM (inactive)			> 100 µM (inactive)	> 100 µM (inactive)	> 100 µM (inactive)	> 100 µM (inactive)	> 100 µM (inactive)	> 100 µM (inactive)		> 100 µM (inactive)	> 100 µM (inactive)	> 100 µM (inactive)
O=C1CCC2(c3ccc(Cl)cc3)Nc3ccccc3N12 (configuration not stated)	> 100 µM (inactive)	52.6 µM (inactive)	> 100 µM (inactive)	97.1	> 100 µM (inactive)	19.9 µM (inactive)	> 100 µM (inactive)	> 100 µM (inactive)	> 100 µM (inactive)	75 µM (inactive)	53.7 µM (inactive)	83.9 µM (inactive)	> 100 µM (inactive)		> 100 µM (inactive)	> 100 µM (inactive)	
O=C(NC(Cc1ccccc1)C(=O)CCl)OCc1ccccc1 (configuration not stated)	14.1 µM (inactive)	18.2 µM (inactive)	18.1 µM (inactive)	5	15.3 µM (inactive)	13 µM (inactive)	13.2 µM (inactive)	11.4 µM (inactive)	5.74 µM (inactive)		4.06 µM (inactive)	5.05 µM (inactive)	12.1 µM (inactive)	13.4 µM (inactive)	15 µM (inactive)	13 µM (inactive)	14.4 µM (inactive)
c1ccc(-c2ccnc3c2ccc2c(-c4ccccc4)ccnc23)cc1	2.53 µM (inactive)	0.875 µM (active)		1.06	1.89 µM (inactive)		0.931 µM (active)	4.06 µM (inactive)	2.39 µM (inactive)	2.28 µM (inactive)		3.12 µM (inactive)	4.57 µM (inactive)	0.736 µM (active)	0.279 µM (active)	2.28 µM (inactive)	2.65 µM (inactive)
O=C1C(=O)N(c2ccc(Cl)c(Cl)c2)C(=O)C(=O)C1c1nc2ccccc2o1		> 100 µM (inactive)	> 100 µM (inactive)	50.2	> 100 µM (inactive)	> 100 µM (inactive)	> 100 µM (inactive)	87.9 µM (inactive)	> 100 µM (inactive)	95.7 µM (inactive)	24.7 µM (inactive)	> 100 µM (inactive)	> 100 µM (inactive)		> 100 µM (inactive)	98.4 µM (inactive)	> 100 µM (inactive)
COc1ccc(NN=C2C(=O)CCC2=O)cc1	55 µM (inactive)	18.3 µM (inactive)	> 100 µM (inactive)	> 100	50 µM (inactive)	> 100 µM (inactive)	> 100 µM (inactive)	> 100 µM (inactive)	> 100 µM (inactive)	37.5 µM (inactive)		> 100 µM (inactive)	> 100 µM (inactive)	48.2 µM (inactive)	> 100 µM (inactive)	52.4 µM (inactive)	> 100 µM (inactive)
COc1ccc(-c2onc(-c3c(C)cc(C)cc3C)c2C2=NCCN2)cc1		74.5 µM (inactive)	44.1 µM (inactive)	40.3	59.2 µM (inactive)		> 100 µM (inactive)	33.3 µM (inactive)	28.8 µM (inactive)	> 100 µM (inactive)	29 µM (inactive)	36.7 µM (inactive)	22.8 µM (inactive)	17.2 µM (inactive)		18.7 µM (inactive)	14.2 µM (inactive)
CCOC(=O)C1=C(Nc2ccc(Cl)c(Cl)c2)OC/C1=N\NC(=O)Cc1ccccc1	> 100 µM (inactive)	> 100 µM (inactive)	> 100 µM (inactive)		> 100 µM (inactive)		> 100 µM (inactive)	> 100 µM (inactive)	> 100 µM (inactive)	> 100 µM (inactive)	68.7 µM (inactive)	> 100 µM (inactive)	> 100 µM (inactive)	> 100 µM (inactive)	> 100 µM (inactive)	63.7 µM (inactive)	> 100 µM (inactive)
COc1cc2c(cc1OC)[C@@H](C(O)c1ccccc1)NCC2 (some centres not stated)	> 100 µM (inactive)	> 100 µM (inactive)	> 100 µM (inactive)	> 100	> 100 µM (inactive)	> 100 µM (inactive)	> 100 µM (inactive)	> 100 µM (inactive)	> 100 µM (inactive)	> 100 µM (inactive)		> 100 µM (inactive)		> 100 µM (inactive)	> 100 µM (inactive)	> 100 µM (inactive)	> 100 µM (inactive)
COc1ccc(C2C(Cl)C(=O)N2NC(=O)Cc2ccccc2)cc1OC (configuration not stated)		> 100 µM (inactive)	> 100 µM (inactive)	> 100	> 100 µM (inactive)		> 100 µM (inactive)	> 100 µM (inactive)	> 100 µM (inactive)	> 100 µM (inactive)	> 100 µM (inactive)	> 100 µM (inactive)	> 100 µM (inactive)	> 100 µM (inactive)	> 100 µM (inactive)	> 100 µM (inactive)	> 100 µM (inactive)
CCCCCCCCCCCCC(=O)CCCCC(=O)O	16.8 µM (inactive)	18.3 µM (inactive)			18.3 µM (inactive)	18.6 µM (inactive)	17.3 µM (inactive)	21.6 µM (inactive)	19.4 µM (inactive)	58.5 µM (inactive)	16.7 µM (inactive)	31.6 µM (inactive)	20.7 µM (inactive)	18.2 µM (inactive)	44.9 µM (inactive)	38 µM (inactive)	68.2 µM (inactive)
